Experimental data from ChEMBL document CHEMBL5226375, “Synthesis and Comprehensive in Vivo Activity Profiling of Olean-12-en-28-ol, 3β-Pentacosanoate in Experimental Autoimmune Encephalomyelitis: A Natural Remyelinating and Anti-Inflammatory Agent” (J Nat Prod, 2023).
Active and inactive are the calls of the source. The calls are words filed in the database; no cut-off is given here.

Experiments:
Mus musculus [1] = experiment: Anti-inflammatory activity against MOG35-55-induced experimental autoimmune encephalomyelitis C57BL/6 mouse model assessed as reduction in TGB1 protein expression in brain at 300 to 600 mg/kg/day, ig for 14 days starting from 12th day of immunization by western blot analysis; type: functional, organism-based; settings: dose 300-600 mg/kg/day, time 14.0 day
Mus musculus [2] = experiment: Anti-inflammatory activity against MOG35-55-induced experimental autoimmune encephalomyelitis C57BL/6 mouse model assessed as fold change in BCL2 gene expression in brain at 600 mg/kg/day, ig for 14 days starting from 12th day of immunization by RT-qPCR analysis relative to control; type: functional; settings: time 14 day
Mus musculus [3] = experiment: Anti-inflammatory activity against MOG35-55-induced experimental autoimmune encephalomyelitis C57BL/6 mouse model assessed as fold change in YWHAH gene expression in brain at 600 mg/kg/day, ig for 14 days starting from 12th day of immunization by RT-qPCR analysis relative to control; type: functional; settings: time 14 day
Mus musculus [4] = experiment: Anti-inflammatory activity against MOG35-55-induced experimental autoimmune encephalomyelitis C57BL/6 mouse model assessed as fold change in NFKB gene expression in brain at 300 mg/kg/day, ig for 14 days starting from 12th day of immunization by RT-qPCR analysis relative to control; type: functional; settings: time 14 day
Mus musculus [5] = experiment: Anti-inflammatory activity against MOG35-55-induced experimental autoimmune encephalomyelitis C57BL/6 mouse model assessed as fold change in APP gene expression in brain at 600 mg/kg/day, ig for 14 days starting from 12th day of immunization by RT-qPCR analysis relative to control; type: functional; settings: time 14 day
Mus musculus [6] = experiment: Anti-inflammatory activity against MOG35-55-induced experimental autoimmune encephalomyelitis C57BL/6 mouse model assessed as reduction in EAE symptoms by measuring reduction in paralysis of hind limbs at 300 to 600 mg/kg/day, ig for 14 days starting from 12th day of immunization; type: functional, organism-based; settings: dose 300-600 mg/kg/day, time 14.0 day
Mus musculus [7] = experiment: Anti-inflammatory activity against MOG35-55-induced experimental autoimmune encephalomyelitis C57BL/6 mouse model assessed as reduction in serum chemokines level by measuring reduction in […] level at 600 mg/kg/day, ig for 14 days starting from 12th day of immunization by ELISA; type: functional, organism-based; settings: time 14.0 day
Mus musculus [8] = experiment: Anti-inflammatory activity against MOG35-55-induced experimental autoimmune encephalomyelitis C57BL/6 mouse model assessed as fold change in MBP gene expression in brain at 300 mg/kg/day, ig for 14 days starting from 12th day of immunization by RT-qPCR analysis relative to control; type: functional; settings: time 14 day
Mus musculus [9] = experiment: Anti-inflammatory activity against MOG35-55-induced experimental autoimmune encephalomyelitis C57BL/6 mouse model assessed as fold change in APP gene expression in brain at 0.3 mg/kg/day, ig for 14 days starting from 12th day of immunization by RT-qPCR analysis relative to control; type: functional; settings: time 14 day
Mus musculus [10] = experiment: Anti-inflammatory activity against MOG35-55-induced experimental autoimmune encephalomyelitis C57BL/6 mouse model assessed as fold change in H2EB1 (HLA-DRB1) gene expression in brain at 0.15 mg/kg/day, ig for 14 days starting from 12th day of immunization by RT-qPCR analysis relative to control; type: functional; settings: time 14 day
Mus musculus [11] = experiment: Anti-inflammatory activity against MOG35-55-induced experimental autoimmune encephalomyelitis C57BL/6 mouse model assessed as fold change in HIF1A gene expression in brain at 0.15 mg/kg/day, ig for 14 days starting from 12th day of immunization by RT-qPCR analysis relative to control; type: functional; settings: time 14 day

SMILES	Activity (Mus musculus [1])	fold change (FC) (Mus musculus [2])	fold change (FC) (Mus musculus [3])	fold change (FC) (Mus musculus [4])	fold change (FC) (Mus musculus [5])	Activity (Mus musculus [6])	Activity (Mus musculus [7])	fold change (FC) (Mus musculus [8])	fold change (FC) (Mus musculus [9])	fold change (FC) (Mus musculus [10])	fold change (FC) (Mus musculus [11])
CCCCCCCCCCCCCCCCCCCCCCCCC(=O)O[C@H]1CC[C@]2(C)[C@H]3CC=C4[C@@H]5CC(C)(C)CC[C@]5(CO)CC[C@@]4(C)[C@]3(C)CC[C@H]2C1(C)C	Active	1.68	-1.78	1.62	1.28	Active	Active	1.01	–	–	–
CCCCCCCCc1ccc(CCC(N)(CO)CO)cc1 [FINGOLIMOD]	–	–	–	–	–	–	–	–	1.72	3.85	2.49
